Values joined by “and” are separate entries in the source; they are usually repeats but may differ in a detail not shown here. Equal values may be shown once. “Also recorded” adds a separate entry of the source. Read-outs that look alike come from different tables or passages of the source.
How the values were obtained:
BChE [1] = molecular target: T1, BChE (Homo sapiens, UniProt P06276); details: read-out: IC50 against BChE; cited from earlier work
AChE [2] = molecular target: T2, AChE (Homo sapiens, UniProt P22303); details: read-out: IC50 against AChE; cited from earlier work
T2 sequence (P22303 32-614): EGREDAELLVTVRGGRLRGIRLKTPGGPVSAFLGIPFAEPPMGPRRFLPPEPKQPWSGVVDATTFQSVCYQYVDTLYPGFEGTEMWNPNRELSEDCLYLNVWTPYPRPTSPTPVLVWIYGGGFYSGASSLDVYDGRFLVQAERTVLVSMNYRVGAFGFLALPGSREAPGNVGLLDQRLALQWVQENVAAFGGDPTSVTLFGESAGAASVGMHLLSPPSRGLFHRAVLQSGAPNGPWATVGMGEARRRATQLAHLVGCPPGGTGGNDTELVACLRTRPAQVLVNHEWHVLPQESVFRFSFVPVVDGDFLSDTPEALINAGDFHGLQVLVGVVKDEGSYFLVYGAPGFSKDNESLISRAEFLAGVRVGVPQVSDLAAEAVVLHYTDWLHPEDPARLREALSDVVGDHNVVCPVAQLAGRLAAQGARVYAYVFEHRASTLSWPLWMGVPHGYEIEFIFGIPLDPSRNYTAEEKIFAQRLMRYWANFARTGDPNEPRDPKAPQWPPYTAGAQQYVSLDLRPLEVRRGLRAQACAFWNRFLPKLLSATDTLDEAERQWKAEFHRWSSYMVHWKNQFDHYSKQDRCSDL

[3] = cited from earlier work
BChE [4] = molecular target: T1, BChE; assay: BChE inhibition, modified Ellman's method; format: biochemical
Experimental: Cholinesterase inhibitory activities of all derivatives were assessed using the modified Ellman’s method. Briefly, 20 µL AChE 0.18 units/mL, or 20 µL BChE 0.162 units/mL, and 20 µL DTNB (301 μM) were added to 200 μL sodium phosphate buffer (0.1 mol/L, pH = 7.4) in separate wells of a 96-well microplate and gently mixed. […]. The absorbance of each well was measured at 415 nm using a microplate reader. IC50 and inhibition values were calculated with the software curve expert as the mean of three independent experiments and expressed as mean ± SEM [25, 26].

AChE [5] = molecular target: T2, AChE; assay: biochemical; format: biochemical; details: for inhibition at 50 µM: mean ± S.E
BChE [6] = molecular target: T1, BChE; assay: Enzyme kinetic study against BChE (Lineweaver–Burk and secondary plots); format: biochemical
From the text: […]. As the concentration of inhibitor 4k increased, the Michaelis–Menten constant (Km) increased, and the maximum reaction rate (Vmax) remained unaffected.
The Ki value provides important information about the strength of the interaction between the inhibitor and the enzyme (Fig. 4).
[…]. A Lineweaver–Burk plot was generated to determine the inhibition type and calculate the Michaelis–Menten constant (Km). Secondary plots were constructed to determine the experimental inhibitor constant (Ki).

[7] = mean ± S.E, read-out: BChE (IC50)
[8] = single graphs behind the mean BChE IC50 of Table 2, read-out: IC50 (individual IC50 graphs, Table S1)

T1 sequence (P06276 29-602): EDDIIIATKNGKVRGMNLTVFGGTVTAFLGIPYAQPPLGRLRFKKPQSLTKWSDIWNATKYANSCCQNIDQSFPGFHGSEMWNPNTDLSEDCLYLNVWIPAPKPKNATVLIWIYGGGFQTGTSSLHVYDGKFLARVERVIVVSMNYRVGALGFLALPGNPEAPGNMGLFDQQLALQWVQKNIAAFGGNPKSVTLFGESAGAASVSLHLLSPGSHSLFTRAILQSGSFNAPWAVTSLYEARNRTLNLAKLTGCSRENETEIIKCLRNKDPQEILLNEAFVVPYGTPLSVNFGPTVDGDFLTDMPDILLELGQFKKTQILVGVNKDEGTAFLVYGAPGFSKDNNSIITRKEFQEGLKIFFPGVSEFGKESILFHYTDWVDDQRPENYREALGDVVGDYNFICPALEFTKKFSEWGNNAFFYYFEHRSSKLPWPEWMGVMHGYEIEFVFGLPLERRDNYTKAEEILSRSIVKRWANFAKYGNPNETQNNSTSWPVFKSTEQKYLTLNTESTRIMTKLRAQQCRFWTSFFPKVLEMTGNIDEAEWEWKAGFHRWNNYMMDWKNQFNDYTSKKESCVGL

Structure (SMILES) | inhibition at 50 µM (BChE [4]; mean ± S.E) [%] | inhibition at 50 µM (AChE [5]) [%] | IC50 (BChE [4]; [7]) [µM] | IC50 (BChE [4]; [8]) | other results
CCOc1ccc2c(c1)OC/C(=C\c1ccc(OCCN3CCCCC3)cc1)C2=O [A] |  |  |  |  | IC50 (BChE [1]): 0.854 ± 0.04 µM
O=C(O)c1coc2ccc(OCc3ccccc3)cc2c1=O [B] |  |  |  |  | IC50 (AChE [2]): 0.37 µM; blood–brain barrier (BBB) permeability [3]: 5.4 ± 0.3 × 10^−6 cm s^−1; IC50 (BChE [1]): 5.24 µM
N#CC1=C(N)OC2=C(C(=O)CCC2)C1c1ccccc1 (stereo not drawn) [Compound 4a, 2-Amino-5-oxo-4-phenyl-5,6,7,8-tetrahydro-4H-chromene-3-carbonitrile] | 39.8 ± 1.39 | 21 ± 1.31 |  |  | 
N#CC1=C(N)OC2=C(C(=O)CCC2)C1c1ccc([N+](=O)[O-])cc1 (stereo not drawn) [Compound 4b, 2-Amino-4-(4-nitrophenyl)-5-oxo-5,6,7,8-tetrahydro-4H-chromene-3-carbonitrile] | 58.7 ± 1.18 | 28.9 ± 2.56 | 27.4 ± 2.01 | 28.8 µM and 26 µM | 
N#CC1=C(N)OC2=C(C(=O)CCC2)C1c1ccc(OCc2ccc(Cl)cc2)cc1 (stereo not drawn) [Compound 4c, 2-Amino-4-{4-[(4-chlorobenzyl)oxy]phenyl}-5-oxo-5,6,7,8-tetrahydro-4Hchromene-3-carbonitrile] | 77.7 ± 3.77 | 23.6 ± 1.2 | 0.89 ± 0.24 | 1.07 µM and 0.72 µM | 
N#CC1=C(N)OC2=C(C(=O)CCC2)C1c1ccc(OCc2ccc(Br)cc2)cc1 (stereo not drawn) [Compound 4d, 2-Amino-4-{4-[(4-bromobenzyl)oxy]phenyl}-5-oxo-5,6,7,8-tetrahydro-4Hchromene-3-carbonitrile] | 67.8 ± 1.7 | 23.4 ± 1 | 1.19 ± 0.31 | 1.41 µM and 0.97 µM | 
N#CC1=C(N)OC2=C(C(=O)CCC2)C1c1ccc(OCCN2CCOCC2)cc1 (stereo not drawn) [Compound 4e, 2-Amino-4-[4-(2-morpholinoethoxy)phenyl]-5-oxo-5,6,7,8-tetrahydro-4Hchromene-3-carbonitrile] | 58.9 ± 0.93 | 34.4 ± 3.1 | 26.3 ± 3.34 | 28.7 µM and 24 µM | 
N#CC1=C(N)OC2=C(C(=O)CCC2)C1c1cccc(OCc2ccc(Cl)cc2)c1 (stereo not drawn) [Compound 4f, 2-Amino-4-{3-[(4-chlorobenzyl)oxy]phenyl}-5-oxo-5,6,7,8-tetrahydro-4H-chromene-3-carbonitrile] | 62 ± 7.24 | 4.42 ± 0.57 | 5.7 ± 0.68 | 6.18 µM and 5.21 µM | inhibitory activity against AChE (in words) (AChE [5]): nearly inactive
N#CC1=C(N)OC2=C(C(=O)CCC2)C1c1cccc(OCc2ccc(Br)cc2)c1 (stereo not drawn) [Compound 4g, 2-Amino-4-{3-[(4-bromobenzyl)oxy]phenyl}-5-oxo-5,6,7,8-tetrahydro-4Hchromene-3-carbonitrile] | 57.3 ± 9.75 | 15 ± 2.59 | 13.1 ± 2.59 | 11.2 µM and 14.9 µM | inhibitory activity against AChE (in words) (AChE [5]): nearly inactive
N#CC1=C(N)OC2=C(C(=O)CCC2)C1c1ccccc1OCc1ccc(Cl)cc1 (stereo not drawn) [Compound 4h, 2-Amino-4-{2-[(4-chlorobenzyl)oxy]phenyl}-5-oxo-5,6,7,8-tetrahydro-4H-chromene-3-carbonitrile] | 21.3 ± 2.69 | 7.35 ± 0.56 |  |  | 
N#CC1=C(N)OC2=C(C(=O)CCC2)C1c1ccccc1OCc1cccc(Cl)c1 (stereo not drawn) [Compound 4i, 2-Amino-4-{2-[(3-chlorobenzyl)oxy]phenyl}-5-oxo-5,6,7,8-tetrahydro-4H-chromene-3-carbonitrile] | 42.8 ± 1.22 | 19.4 ± 2.39 |  |  | 
COc1ccc(COc2ccccc2C2C(C#N)=C(N)OC3=C2C(=O)CCC3)cc1 (stereo not drawn) [Compound 4j, 2-Amino-4-{2-[(4-methoxybenzyl)oxy]phenyl}-5-oxo-5,6,7,8-tetrahydro-4H-chromene-3-carbonitrile] | 38.3 ± 4.36 | 16.3 ± 0.63 |  |  | 
COc1cc(C2C(C#N)=C(N)OC3=C2C(=O)CCC3)ccc1OCc1ccc(F)cc1 (stereo not drawn) [Compound 4k, 2-Amino-4-{4-[(4-fluorobenzyl)oxy]-3-methoxyphenyl}-5-oxo-5,6,7,8-tetrahydro-4H-chromene-3-carbonitrile] | 80.5 ± 5.08 | 41.1 ± 2.33 | 0.65 ± 0.13 |  | type of inhibition (BChE [6]; Lineweaver–Burk plot, Km increased, Vmax unaffected): competitive-type inhibition; also recorded: competitive inhibitor; Ki (BChE [6]; from secondary plot of slopes vs inhibitor concentration, R^2 = 0.9876, read-out: Ki (inhibition constant)): 0.55 µM
COc1cc(C2C(C#N)=C(N)OC3=C2C(=O)CCC3)ccc1OCc1cccc(F)c1 (stereo not drawn) [Compound 4l, 2-Amino-4-{4-[(3-fluorobenzyl)oxy]-3-methoxyphenyl}-5-oxo-5,6,7,8-tetrahydro-4H-chromene-3-carbonitrile] | 76.1 ± 0.88 | 33.6 ± 3.29 | 2.63 ± 0.19 | 2.77 µM and 2.49 µM | 
COc1cc(C2C(C#N)=C(N)OC3=C2C(=O)CCC3)ccc1OCc1cccc(Cl)c1 (stereo not drawn) [Compound 4m, A-amino-4-{4-[(3-chlorobenzyl)oxy]-3-methoxyphenyl}-5-oxo-5,6,7,8-tetrahydro-4H-chromene-3-carbonitrile] | 69.7 ± 1.52 | 12.9 ± 1.27 | 1.51 ± 0.2 |  | IC50 (BChE [4]; read-out: IC50 (individual IC50 graphs, Table S1)): 1.65 µM and 1.36 µM
O=C(NCCCCCCCCCCNc1c2c(nc3ccccc13)CCCC2)c1cc(=O)c2cc(O)ccc2o1 [E] |  |  |  |  | IC50 (AChE [2]): 8 ± 0.2 µM; BBB permeability [3]: 23.1 ± 0.1 × 10^−6 cm s^−1; IC50 (BChE [1]): 1.5 ± 0.04 µM
N#CC1=C(N)Oc2c(c(=O)oc3ccccc23)C1c1cc[n+](Cc2ccc(F)cc2)cc1 (stereo not drawn) [F] |  |  |  |  | IC50 (BChE [1]): 1.84 ± 0.12 µM
N#CC1=C(N)OC2=C(C(=O)CCC2)C1c1ccc(OCCN2CCCCC2)cc1 (stereo not drawn) [G] |  |  |  |  | IC50 (AChE [2]): 20.4 ± 9.3 µM; IC50 (BChE [1]): 8.1 ± 0.5 µM
